According to ChEMBL document CHEMBL1201862, “PubChem BioAssay data set” (2004):
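Where inhibition never reached the appropriate level, the endpoint shown equals the highest concentration tested. Otherwise, values were interpolated linearly from a five-concentration, 48-hour dose response in 96-well plates. At the GI50, growth is halved.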 The source made the active and inactive calls. Cut-off read from the data, not from the text of the source: active = GI50 up to about 1.1 µM and inactive = higher.

How the values were obtained:
Experiment in all cases: NCI tumour cell line growth inhibition, 48 h
[1] = test system: ACHN
[2] = test system: CAKI-1
[3] = test system: COLO 205
[4] = test system: EKVX
[5] = test system: KM12
[6] = test system: LOX IMVI
[7] = test system: MDA-MB-231
[8] = test system: MDA-MB-435
[9] = test system: NCI/ADR-RES
[10] = test system: OVCAR-3
[11] = test system: OVCAR-4
[12] = test system: SF-268
[13] = test system: SF-539
[14] = test system: SK-MEL-2
[15] = test system: SNB-75
[16] = test system: SR
[17] = test system: UACC-62
[18] = test system: UO-31
[19] = test system: HOP-62
[20] = test system: SN12C

Measured: GI50

CC(=O)/C=c1\[nH]/c(=C\C=C\c2ccccc2)c(=O)n1/C=C1\C(=O)Oc2ccccc2C1=O
inactive: [1] > 100 µM | [2] > 100 µM | [3] > 100 µM | [4] 40.6 µM | [5] > 100 µM | [6] > 100 µM | [7] > 100 µM | [8] > 100 µM | [9] > 100 µM | [10] > 100 µM | [11] > 100 µM | [12] > 100 µM | [13] > 100 µM | [14] > 100 µM | [15] 59.4 µM | [16] > 100 µM | [17] > 100 µM | [18] > 100 µM

CC(=O)OC1CCC2(C)C(CCC3C4CC=C(C5(C)OCCO5)C4(C)CCC32)C1 (stereo not drawn)
inactive: [1] 25.1 µM | [2] 28.3 µM | [3] 17.6 µM | [4] 21.7 µM | [19] 19.1 µM | [5] 23.6 µM | [6] 16.9 µM | [7] 33.2 µM | [8] 20.3 µM | [9] 20.6 µM | [10] 19.7 µM | [11] 19.7 µM | [12] 27.8 µM | [13] 20.5 µM | [14] 18.5 µM | [20] 19.6 µM | [15] 28.8 µM | [16] 17.1 µM | [17] 19.9 µM | [18] 25.4 µM

OC1CC2CCCN(CCc3c1[nH]c1ccccc31)C2 (stereo not drawn)
inactive: [1] > 100 µM | [2] > 100 µM | [3] > 100 µM | [5] > 100 µM | [6] > 100 µM | [7] 89.3 µM | [8] > 100 µM | [9] > 100 µM | [11] > 100 µM | [12] > 100 µM | [13] > 100 µM | [14] > 100 µM | [20] > 100 µM | [15] > 100 µM | [16] 97.1 µM | [17] 86.7 µM | [18] > 100 µM

Cn1c2c(c3ccccc31)CCN1C(=O)CCC21 (stereo not drawn)
inactive: [1] > 10 µM | [2] > 10 µM | [3] > 10 µM | [4] > 10 µM | [19] > 10 µM | [5] > 10 µM | [6] > 10 µM | [7] > 10 µM | [8] > 10 µM | [9] > 10 µM | [10] > 10 µM | [11] > 10 µM | [12] > 10 µM | [13] > 10 µM | [14] > 10 µM | [20] > 10 µM | [15] > 10 µM | [16] > 10 µM | [18] > 10 µM

CCC[C@H](C)[C@H]1NC(=O)[C@@H](NC(=O)[C@@H](CC(C)C)N(C)C(=O)C2CCCN2C(=O)[C@H](C)O)[C@@H](C)OC(=O)[C@H](CC(C)C)N(C)C(=O)[C@@H]2CCCN2C(=O)[C@H](CC(C)C)NC(=O)[C@@H](C)C(=O)[C@H](C(C)C)OC(=O)C[C@@H]1O (stereo partly drawn)
active: [1] < 0.0025 µM | [2] 0.0162 µM | [3] < 0.0025 µM | [4] < 0.0025 µM | [19] < 0.0025 µM | [5] < 0.0025 µM | [6] < 0.0025 µM | [7] < 0.0025 µM | [8] < 0.0025 µM | [9] 0.189 µM | [10] < 0.0025 µM | [11] < 0.0025 µM | [12] < 0.0025 µM | [13] < 0.0025 µM | [14] < 0.0025 µM | [20] < 0.0025 µM | [15] < 0.0025 µM | [16] < 0.0025 µM | [17] < 0.0025 µM | [18] 0.0107 µM

Cn1c([C@H](C#N)c2ncccc2[N+](=O)[O-])nc2ccccc21
inactive: [1] > 100 µM | [2] > 100 µM | [4] 56 µM | [19] 24.5 µM | [5] > 100 µM | [6] > 100 µM | [7] > 100 µM | [8] > 100 µM | [9] 78.2 µM | [10] > 100 µM | [12] 36 µM | [13] 31.1 µM | [14] 40.6 µM | [15] 28.2 µM | [16] > 100 µM | [17] > 100 µM | [18] > 100 µM

C[C@@H](O)C(=O)N1[C@@H]2CC3CC[C@]2(CS1(=O)=O)C3(C)C
inactive: [1] 64.1 µM | [2] > 100 µM | [3] 79.3 µM | [4] 89.7 µM | [19] > 100 µM | [5] 82.2 µM | [6] > 100 µM | [7] > 100 µM | [8] 63.8 µM | [9] > 100 µM | [10] > 100 µM | [11] 85.9 µM | [13] 48.9 µM | [14] > 100 µM | [20] 55.5 µM | [15] > 100 µM | [16] 18 µM | [17] > 100 µM | [18] > 100 µM

CC(=O)N1N=C(c2ccc3ccccc3c2O)CC1c1ccc(N(C)C)cc1 (stereo not drawn)
inactive: [1] > 100 µM | [2] > 100 µM | [3] > 100 µM | [19] > 100 µM | [5] > 100 µM | [7] > 100 µM | [8] > 100 µM | [9] > 100 µM | [10] > 100 µM | [11] > 100 µM | [12] > 100 µM | [13] > 100 µM | [14] > 100 µM | [20] > 100 µM | [15] > 100 µM | [16] 10.9 µM | [17] > 100 µM | [18] > 100 µM

O=C1C(C(O)(C(F)(F)Cl)C(F)(F)Cl)CCC1C(O)(C(F)(F)Cl)C(F)(F)Cl (stereo not drawn)
inactive: [1] 3.81 µM | [2] 3.4 µM | [3] 4.17 µM | [4] 4.1 µM | [19] 5.57 µM | [5] 4.45 µM | [6] 3.94 µM | [7] 3.34 µM | [8] > 10 µM | [9] > 10 µM | [10] 7.28 µM | [11] 3.4 µM | [12] 3.57 µM | [13] 2.74 µM | [14] 2.3 µM | [20] 6.87 µM | [15] 3.7 µM | [16] > 10 µM | [17] 3.25 µM

Nc1ccc(C(=O)O)cc1 [AMINOBENZOIC ACID]
inactive: [1] > 100 µM | [2] > 100 µM | [3] > 100 µM | [4] > 100 µM | [19] > 100 µM | [5] > 100 µM | [6] > 100 µM | [7] 28.1 µM | [8] > 100 µM | [9] > 100 µM | [10] > 100 µM | [11] > 100 µM | [12] > 100 µM | [13] > 100 µM | [14] > 100 µM | [20] 28.7 µM | [15] > 100 µM | [16] > 100 µM | [18] > 100 µM

Cc1ccc2c(c1C)CC1(Cc3ccc(C)c(C)c3C1=O)C2=O (stereo not drawn)
inactive: [1] 46 µM | [2] 44.2 µM | [3] > 100 µM | [4] 44.2 µM | [5] > 100 µM | [6] > 100 µM | [7] 30.8 µM | [8] > 100 µM | [9] > 100 µM | [10] > 100 µM | [11] 33.7 µM | [12] > 100 µM | [13] 28.6 µM | [14] > 100 µM | [20] > 100 µM | [15] 67.6 µM | [16] > 100 µM | [17] > 100 µM | [18] > 100 µM

COc1ccc(/C=C(\C#N)c2nc3ccccc3c(=O)[nH]2)cc1
inactive: [1] 17.1 µM | [2] 27.8 µM | [3] 73.6 µM | [4] 59.6 µM | [19] 10.5 µM | [5] 51.5 µM | [6] 43.4 µM | [7] 4.84 µM | [8] > 100 µM | [9] 20.3 µM | [11] 20.3 µM | [12] 13.7 µM | [13] 12.6 µM | [14] 27.3 µM | [20] 33.6 µM | [15] 23.9 µM | [16] 39.4 µM | [17] 18.4 µM | [18] 26.5 µM

Cc1cc(=O)n2nc(SCc3ccccc3)sc2n1
inactive: [1] 22.8 µM | [3] > 100 µM | [19] > 100 µM | [5] > 100 µM | [6] 77.4 µM | [7] > 100 µM | [8] 66.4 µM | [9] > 100 µM | [10] > 100 µM | [11] > 100 µM | [12] > 100 µM | [13] > 100 µM | [20] > 100 µM | [15] > 100 µM | [16] > 100 µM | [17] 28.4 µM | [18] 24.3 µM

CC#CC#C/C=C1/C=CC2(CCCCO2)O1 (stereo not drawn)
inactive: [2] > 100 µM | [3] 71.1 µM | [4] > 100 µM | [5] > 100 µM | [6] 90.2 µM | [7] > 100 µM | [8] > 100 µM | [9] > 100 µM | [11] > 100 µM | [12] > 100 µM | [13] > 100 µM | [14] > 100 µM | [20] > 100 µM | [15] > 100 µM | [16] 35.6 µM | [17] 86.5 µM | [18] 42.9 µM
